Active and inactive are the calls of the source.
Columns and labels:
[1] = target: T1, Oxysterols receptor LXR-beta (Homo sapiens, UniProt P55055); test: LXR agonists, Gal4 luciferase reporter, dose response, counter-screen for ssDAF-12 agonist project, cell-based, luminescence, HEK293, S. stercoralis campaign (AID 720737); type: functional; conditions: read-out: IC50 (the source's name)
T1 sequence (P55055 whole entry): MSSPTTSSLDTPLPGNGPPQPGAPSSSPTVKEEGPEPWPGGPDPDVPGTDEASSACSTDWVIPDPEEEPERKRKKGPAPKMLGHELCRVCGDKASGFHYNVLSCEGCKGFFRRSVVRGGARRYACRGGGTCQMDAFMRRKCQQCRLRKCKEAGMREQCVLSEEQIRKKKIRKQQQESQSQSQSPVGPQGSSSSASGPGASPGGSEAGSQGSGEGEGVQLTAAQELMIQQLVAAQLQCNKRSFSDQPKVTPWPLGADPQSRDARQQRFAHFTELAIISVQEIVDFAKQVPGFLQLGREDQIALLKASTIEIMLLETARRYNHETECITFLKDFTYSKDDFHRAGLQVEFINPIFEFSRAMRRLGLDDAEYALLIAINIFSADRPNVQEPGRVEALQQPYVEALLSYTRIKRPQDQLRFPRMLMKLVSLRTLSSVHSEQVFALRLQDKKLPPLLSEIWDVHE

[2] = Luminescence-based cell-based high throughput dose response assay to identify activators of the DAF-12 from the parasite S. stercoralis (ssDAF-12).; type: functional
cells [3] = test: cells
[4] = target: T1, Oxysterols receptor LXR-beta; type: functional, cell-based
Paired box protein Pax-8 = Paired box protein Pax-8 (Homo sapiens, UniProt Q06710); test: PAX8 transcriptional activity inhibition in RMG-I – RMG-I cells, luciferase, cherry-pick, dose response (AID 687027); type: functional, cell-based;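 further: luciferase reporter driven by Pax8 target thyroperoxidase promoter measured by SteadyGlo luminescence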
[5] = OVCAR-3 cell viability loss – plate reader, dry powder samples, PAX8 inhibitor project, dose response (AID 743044); type: functional, cell-based
cells [6] = test: cells; remark: listed apart in the source
Major prion protein = Major prion protein (Homo sapiens, UniProt P04156); type: functional, cell-based
cells [7] = type: functional, cell-based; conditions: HEK-CNG
Galanin receptor type 3 = target: T2, Galanin receptor type 3 (Homo sapiens, UniProt O60755); test: Fluorescence-based cell-based primary high throughput dose response assay to identify antagonists of the Galanin Receptor 3 (GalR3).; type: functional
T2 sequence (O60755 whole entry): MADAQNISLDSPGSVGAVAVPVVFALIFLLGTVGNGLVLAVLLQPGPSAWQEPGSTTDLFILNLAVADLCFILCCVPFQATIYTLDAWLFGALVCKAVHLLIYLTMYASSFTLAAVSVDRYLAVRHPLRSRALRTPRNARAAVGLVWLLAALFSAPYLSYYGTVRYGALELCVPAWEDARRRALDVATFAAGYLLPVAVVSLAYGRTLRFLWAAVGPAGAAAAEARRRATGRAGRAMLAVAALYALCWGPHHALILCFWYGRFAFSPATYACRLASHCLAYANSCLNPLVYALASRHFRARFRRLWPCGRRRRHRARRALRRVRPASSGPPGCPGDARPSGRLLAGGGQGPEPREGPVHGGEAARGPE

Albumin = Albumin (Bos taurus, UniProt P02769); test: Counterscreen for inhibitors of T-cell receptor (TCR)-CD3 interaction: Fluorescence-based biochemical high throughput dose response assay to identify inhibitors of T-cell receptor (TCR)-CD3 interaction using a TAMRA-labeled BSA probe.; type: functional
Prothrombin = Prothrombin (Homo sapiens, UniProt P00734); test: Thrombin 1536 HTS Dose Response Confirmation. [Related pubchem assays: 1046 (Thrombin 1536 HTS; hits were confirmed in this assay)]; type: functional
[8] = OVCAR8 cell viability loss – plate reader, dry powder samples, PAX8 project, dose response (AID 743197); type: functional, cell-based; conditions: OVCAR-8
[9] = IGROV1 cell killing – plate reader, dry powder samples, PAX8 inhibitor project, dose response (AID 743043); type: functional, cell-based; conditions: IGROV-1
Aminopeptidase N = target: T3, Aminopeptidase N (Plasmodium falciparum FcB1/Columbia, UniProt O96935); test: malaria alanyl aminopeptidase activity blockers – biochemical, fluorogenic H-Leu-NHMec substrate, 1536-well (AID 1445); set-up: species or system Plasmodium falciparum 3D7, 3D7
T3 sequence (O96935 whole entry): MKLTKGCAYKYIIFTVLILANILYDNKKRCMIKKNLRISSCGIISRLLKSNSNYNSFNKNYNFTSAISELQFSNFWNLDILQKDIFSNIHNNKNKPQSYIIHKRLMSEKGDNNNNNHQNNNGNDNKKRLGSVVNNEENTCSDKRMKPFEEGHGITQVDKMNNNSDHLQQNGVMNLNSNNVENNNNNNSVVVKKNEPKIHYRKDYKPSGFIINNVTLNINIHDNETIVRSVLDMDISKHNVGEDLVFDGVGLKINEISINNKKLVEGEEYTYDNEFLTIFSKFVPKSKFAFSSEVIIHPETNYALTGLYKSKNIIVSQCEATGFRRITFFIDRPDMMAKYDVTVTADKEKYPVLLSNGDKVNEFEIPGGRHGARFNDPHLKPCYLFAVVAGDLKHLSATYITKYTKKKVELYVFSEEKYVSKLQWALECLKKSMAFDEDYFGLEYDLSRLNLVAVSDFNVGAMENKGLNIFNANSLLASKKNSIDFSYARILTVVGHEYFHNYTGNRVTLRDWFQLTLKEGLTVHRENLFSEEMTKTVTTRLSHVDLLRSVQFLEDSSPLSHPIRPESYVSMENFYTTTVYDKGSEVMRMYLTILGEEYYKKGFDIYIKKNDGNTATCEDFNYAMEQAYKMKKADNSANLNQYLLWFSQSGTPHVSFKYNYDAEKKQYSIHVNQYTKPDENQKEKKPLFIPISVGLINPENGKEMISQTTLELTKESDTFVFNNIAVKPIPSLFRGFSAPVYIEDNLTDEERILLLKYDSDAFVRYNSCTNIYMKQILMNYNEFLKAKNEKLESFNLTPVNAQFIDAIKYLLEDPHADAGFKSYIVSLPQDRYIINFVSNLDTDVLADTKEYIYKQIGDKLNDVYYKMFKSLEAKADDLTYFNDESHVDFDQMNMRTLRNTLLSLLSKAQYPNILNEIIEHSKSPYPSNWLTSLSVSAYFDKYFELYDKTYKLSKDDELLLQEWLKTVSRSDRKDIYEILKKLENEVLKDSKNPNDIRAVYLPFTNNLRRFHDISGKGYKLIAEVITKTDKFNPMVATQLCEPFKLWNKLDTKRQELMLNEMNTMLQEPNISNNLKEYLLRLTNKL

Estrogen receptor beta = Estrogen receptor beta (Homo sapiens, UniProt Q92731);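 further: recombinant ER-beta bound to coactivator SRC1 peptide in presence of estradiol agonist; inhibitors block coactivator peptide binding and lower the FRET signal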
[10] = target: T1, Oxysterols receptor LXR-beta; type: functional, cell-based; remark: listed apart in the source
[11] = Luminescence Cell-Based Dose Response HTS to Identify Inhibitors of 5'UTR Stem-Loop Driven Prion Protein mRNA Translation in H4 Neuroglioblastoma Cells. [Related pubchem assays: 1827 (Project Summary), 1813 (Primary HTS)]; type: functional
[12] = target: Luciferin 4-monooxygenase (Photinus pyralis, UniProt P08659); test: Counter Screen for Luciferase-based Assay Positives. [Related pubchem assays: 620, 618, 411 ]
HT-1080 = test: HT1080 cell viability loss – fluorescence readout (AID 620); type: functional, cell-based; conditions: Homo sapiens
[13] = alpha-synuclein stem-loop luciferase translation blockers – H4 neuroglioma cells, luminescence, confirmation (AID 1988); type: functional, cell-based
cells [14] = test: cells; remark: listed apart in the source
[15] = viability of uninfected HEp-2 cells – cell-based, HTS, cytotoxicity control for RSV inhibitor project, dose response (AID 2410); type: functional; conditions: human respiratory syncytial virus
Cytochrome P450 3A4 = Cytochrome P450 3A4 (Homo sapiens, UniProt P08684);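 further: CYP3A4 tested as one member of a cytochrome P450 panel screen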
[16] = viability loss in THP-1 monocytes – THP-1 cells, cytotoxicity control for Vif-APOBEC3G degradation inhibitor project, dose response (AID 1117359); type: functional; conditions: THP-1
[17] = Trypanosoma cruzi growth suppression in host cells – NIH3T3 host cells, beta-gal luminescence, confirmation (AID 2044); type: functional, cell-based;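 further: intracellular parasites grown in NIH/3T3 mouse fibroblasts as host cells; luminescent beta-galactosidase reporter signal from transgenic T. cruzi replicating inside host cells; inhibitors lower the luminescence signal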
[18] = NIH3T3 cell viability loss – ATP luminescence, mouse fibroblasts, counter-screen, dose response (AID 2010); type: functional, cell-based;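 further: cells exposed to compound for about 90 hours before reading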
BJ [19] = test: cells; type: functional, cell-based; conditions: Homo sapiens
[20] = DRD fibroblast viability loss – cell-based, non-viral oncogenic, luminescence, dose response (AID 1934); type: functional; conditions: Homo sapiens
BJ [21] = test: BJ-TERT fibroblast viability loss – cell-based, RAS-independent, luminescence, dose response (AID 1933); type: functional; conditions: Homo sapiens
BJ [22] = test: BJ-TERT-LT-ST fibroblast viability loss – cell-based, RAS-independent, luminescence, dose response (AID 1935); type: functional; conditions: Homo sapiens;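 further: BJ fibroblasts immortalized with TERT plus LT and ST oncogenes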
[23] = Luminescence Cell-Based Dose Response HTS to Identify Activators of Luciferase Translation or Activity in H4 […] Cells. [Related pubchem assays: 1829 (Project Summary), 1814 (Primary HTS)]; type: functional
H4 = test: Luminescence Cell-Based Dose Response HTS to Identify Activators of 5'UTR Stem-Loop Driven Prion Protein mRNA Translation in H4 Neuroglioblastoma Cells. [Related pubchem assays: 1829 (Project Summary), 1814 (Primary HTS)]; type: functional; conditions: Homo sapiens
INS1 = test: INS-1E survival protection against cytokine death – cell-based, luminescence, retest, dose response (AID 449756); type: functional; conditions: Rattus norvegicus;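 further: cell death triggered by IL-1 beta plus TNF-alpha plus IFN-gamma mixture; protective hits raise ATP signal compared with cytokine alone wells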

CCOC(=O)N1CCC(/N=c2/c(-c3ccc(C)cc3)c(O)c2=O)CC1
EC50 [1]: > 67.5 µM (inactive) | IC50 [2]: > 67.5 µM (inactive)

Cn1cc(Cl)c(C(=O)Nc2nc3ccccc3s2)n1
EC50 (cells [3]): > 67.5 µM (inactive) | EC50 [1]: > 67.5 µM (inactive) | IC50 [2]: > 67.5 µM (inactive) | EC50 [4]: > 67.5 µM (inactive)

COc1ccccc1S(=O)(=O)N1CC[C@H]2[C@@H](CO)N(C)c3ccc(-c4ccc(C#N)cc4)cc3[C@H]21
AC50 (Paired box protein Pax-8): 38.1 µM (active) | AC50 [5]: 37.8 µM (active)

CCc1nc(SCC(=O)NNC(=O)c2ccc(C)cc2)c2ccccc2n1
IC50 (cells [6]): > 138 µM (inactive) | IC50 (Major prion protein): 1.36 µM (active)

CC1(C)CC2CC(C)(CN2S(=O)(=O)c2ccc(C(=O)Nc3cccc(S(=O)(=O)N4CCOCC4)c3)cc2)C1 (stereo unspecified)
EC50 (cells [7]): > 29.9 µM (inactive) | IC50 (Galanin receptor type 3): 0.805 µM (active) | IC50 (Albumin): > 94.1 µM (inactive)

COc1ccc(CN2C(=O)c3ccccc3C2C(=O)NC2CCCCCC2)c(OC)c1 (stereo unspecified)
IC50 (Prothrombin): 10.8 µM (active)

C[C@@H]1CN([C@H](C)CO)C(=O)c2cc(NS(=O)(=O)c3ccccc3)ccc2O[C@@H](C)CCCCO[C@@H]1CN(C)Cc1ccc(Cl)c(Cl)c1
AC50 (Paired box protein Pax-8): 4.44 µM (active) | AC50 [8]: 46.5 µM (active) | AC50 [9]: 27.8 µM (active)

CCN1CCN(Cc2c(O)c(Cl)cc3c(C)cc(=O)oc23)CC1
IC50 (Aminopeptidase N): 38.3 µM (active) | IC50 (Estrogen receptor beta): 18 µM (active)

Cc1ccc(C(=N)NOC(=O)c2cccs2)cc1
EC50 [10]: > 67.6 µM (inactive)

C=CCn1c(C)cc(C(=O)CSc2nc3ccccc3[nH]2)c1C
EC50 [11]: 11.1 µM (active) | EC50 [12]: < 0.2 µM (active) | EC50 (HT-1080): > 50 µM (not active) | EC50 [13]: 9.31 µM (active)

Cc1ccc(C(=O)N/C(=C/c2ccc(C(C)C)cc2)C(=O)NCCCN2CCOCC2)cc1
IC50 (cells [14]): 13.2 µM (active) | CC50 [15]: > 50 µM (active)

CC1CCc2c(sc(NC(=O)COC(=O)C3CCCO3)c2C#N)C1 (stereo unspecified)
IC50 (Prothrombin): > 50 µM (not active)

O=C(Nc1cc(C(F)(F)F)ccc1N1CCOCC1)C1Cc2ccccc2CN1C(=O)c1ccco1 (stereo unspecified)
IC50 (Estrogen receptor beta): 5.94 µM (active)

CCOC(=O)CSc1nnc(NC(=O)c2ccccc2)[nH]1
AC50 (Cytochrome P450 3A4): 39.8 µM (inconclusive) | IC50 (Prothrombin): 0.862 µM (active)

CCCCN(CCCC)S(=O)(=O)c1ccc(NC(=O)c2cccs2)cc1
CC50 [16]: 27.9 µM (active) | EC50 [17]: 1.83 µM (active) | EC50 [18]: > 60 µM (not active)

O=C(O)c1cc(-c2cccs2)nc2ccc(Br)cc12
IC50 (cells [6]): > 138 µM (inactive) | IC50 (Major prion protein): 1.41 µM (active)

Cc1ccc(C)c(Nc2c([N+](=O)[O-])cc(C(=O)N3CC(=O)Nc4ccccc43)cc2[N+](=O)[O-])c1
IC50 (cells [14]): 41.7 µM (active) | EC50 [17]: 0.992 µM (active) | CC50 [15]: 28.3 µM (active) | EC50 [18]: > 60 µM (inconclusive)

O=C(c1c(Cl)nc2sccn12)N1CCN(c2cccc(Cl)c2)CC1
EC50 (BJ [19]): 75.7 µM (inconclusive) | EC50 [20]: 1.56 µM (active) | EC50 (BJ [21]): 3.07 µM (active) | EC50 [12]: 0.39 µM (active) | EC50 (BJ [22]): 1.36 µM (inconclusive) | EC50 (HT-1080): 11.3 µM (active)

Cc1cc(OCc2cc(C(=O)NCc3cc(C(C)C)no3)no2)cc(C)c1Cl
EC50 [10]: > 67.5 µM (inactive)

Cn1ccnc1SCC(=O)c1c[nH]c2ccccc12
EC50 [23]: 0.343 µM (active) | EC50 [1]: > 67.5 µM (inactive) | EC50 (H4): < 0.195 µM (active) | IC50 [2]: > 67.5 µM (inactive)

Cc1cc(N2CCOCC2)n2ncc(-c3ccccc3)c2n1
EC50 (cells [3]): > 67.5 µM (inactive) | AC50 (INS1): 7.88 µM (active) | EC50 [12]: 0.2 µM (active) | EC50 (HT-1080): > 50 µM (not active) | EC50 [4]: > 67.5 µM (inactive)

COc1ccc(S(=O)(=O)Nc2ccc3c(c2)C(=O)N([C@@H](C)CO)C[C@H](C)[C@@H](CN(C)Cc2ccc(C(F)(F)F)cc2)OCCCC[C@H](C)O3)cc1
AC50 (Paired box protein Pax-8): 6.83 µM (active) | AC50 [8]: > 70 µM (inactive) | AC50 [9]: 37.9 µM (active) | AC50 [5]: 46.7 µM (active)

CCC1(CC)Cc2ccccc2-c2nc(S)nc(O)c21
IC50 (cells [6]): > 138 µM (inactive) | IC50 (Major prion protein): 3.08 µM (active)

— ChEMBL document CHEMBL1201862, “PubChem BioAssay data set” (2004)
